Assay results taken from patent US8030327B2 (MDS K.K., priority 2004, dated 2011).

Tests used:
[1] = target: T1, full-length human PLK1 (Homo sapiens, UniProt P53350); test: Measurement of PLK1 activity (33P-ATP, phosphocellulose filter); format: biochemical; conditions: 50 μM substrate peptide, 50 μM ATP, 25° C., 20 minutes, read-out: PLK1 inhibitory activity
T1 construct: a baculovirus expressing full-length human PLK1; GST (glutathione S-transferase) (N, cleaved yes); made in house; host or cells: Spodoptera frugiperda Sf9 insect cells (baculovirus)
T1 sequence (P53350 whole entry): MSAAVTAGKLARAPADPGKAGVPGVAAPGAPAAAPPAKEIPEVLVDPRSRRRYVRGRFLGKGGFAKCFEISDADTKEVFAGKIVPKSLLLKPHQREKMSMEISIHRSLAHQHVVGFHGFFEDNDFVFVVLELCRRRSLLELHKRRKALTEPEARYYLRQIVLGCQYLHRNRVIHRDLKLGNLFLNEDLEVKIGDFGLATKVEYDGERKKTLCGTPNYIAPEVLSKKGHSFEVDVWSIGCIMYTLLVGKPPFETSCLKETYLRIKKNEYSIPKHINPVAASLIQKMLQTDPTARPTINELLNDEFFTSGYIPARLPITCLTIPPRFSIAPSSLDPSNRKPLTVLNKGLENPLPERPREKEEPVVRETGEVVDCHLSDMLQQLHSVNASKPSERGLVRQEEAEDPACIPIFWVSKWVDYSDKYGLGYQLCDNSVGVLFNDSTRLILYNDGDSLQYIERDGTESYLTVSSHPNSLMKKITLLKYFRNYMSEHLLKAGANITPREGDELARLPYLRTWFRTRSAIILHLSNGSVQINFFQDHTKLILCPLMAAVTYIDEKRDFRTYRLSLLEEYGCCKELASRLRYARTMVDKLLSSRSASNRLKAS
Protocol: First, a baculovirus expressing full-length human PLK1 of which the N terminus is fused with GST (glutathione S-transferase) was prepared, and then the PLK1 transfected into a Spodoptera frugiperda(Sf)9 insect cell was highly expressed as a GST-fused protein. The cells were recovered and suspended in a lysis buffer (50 mM tris-hydrochloric acid buffer (pH 7.4)/150 mM sodium chloride/1 mM EDTA (ethylenediamine tetraacetic acid)/1 mM dithiothreitol/0.1% polyoxyethylene sorbitan monolaurate) to break open cells with a sonicator, and supernatant was recovered after a centrifugation. The supernatant was reacted on glutathione sepharose beads, and then the beads were washed with a lysis buffer. Thereafter, the beads were reacted in a lysis buffer containing Precision Protease to recover supernatant. […]
The reaction was carried out in accordance with the method of Toyoshima-Morimoto et al. [Nature, Vol. 410, 215-220, (2001)]. […] After washing the phosphocellulose filter with 75 mM phosphate buffer, the filter was dried to measure the radioactivity with a liquid scintillation counter. […]

[2] = target: T2, PLK1-T210D (human active type PLK1) (Homo sapiens, UniProt P53350, T210D); test: Measurement of PLK1-T210D activity (33P-ATP, phosphocellulose filter); format: biochemical; conditions: 50 μM substrate peptide, 50 μM ATP, 25° C., 20 minutes, read-out: PLK1-T210D inhibitory activity
T2 construct: a baculovirus expressing full-length human PLK1; GST (glutathione S-transferase) (N); made in house; host or cells: insect cells (baculovirus)
T2 sequence (P53350 whole entry T210D): as the sequence (P53350 whole entry) above, with T210D counted along it
Protocol: For the measurement of the PLK1 and PLK1-T210D activity, a synthetic peptide (aspartic acid-glutamic acid leucine-methionine-glutamic acid-alanine-serine-phenylalanine-alanine-aspartic acid-glutamine-aspartic acid-alanine-lysine) in which the serine surrounding sequence of the amino acid sequence No. 198 of CDC25C having been reported as the site for PLK1 substrate [EMBO Report, Vol. 3, 341 (2002)] is altered, was used as a substrate.
The volume of the reaction solution was 21.1 μL and the composition of the reaction buffer was 20 mM tris-hydrochloric acid buffer (pH 7.4)/10 mM magnesium chloride/0.5 mM dithiothreitol/1 mM EGTA (ethylene glycol-bis(beta-aminoethylether)-N,N,N′,N′,-tetraacetic acid). Thereto, purified PLK 1, 50 μM of the substrate peptide, 50 μM of non-labeled adenosine triphosphate (ATP), and 1 μCi of [γ-^33P]-labeled ATP (2000 to 4000 Ci/mmole) were added to carry out the reaction at 25° C. for 20 minutes. Then, 10 μL of 350 mM phosphate buffer was added to the reaction system to terminate the reaction. The resultant solution was spotted onto a multi-screen phosphocellulose filter on a 96-well plate. After washing the phosphocellulose filter with 75 mM phosphate buffer, the filter was dried to measure the radioactivity with a liquid scintillation counter. […]

[3] = tested on: HeLaS3 cells; test: PLK1 inhibitory activity at cellular level: M phase arrest by phospho-histone H3 (Ser10) immunofluorescence; format: cell-based, human; conditions: HeLaS3 cells synchronized at G1/S; 12 hours after addition; concentration inducing 50% of maximum ratio of cells arrested at M phase
Protocol: For the measurement of the PLK 1 inhibitory activity of the compound at the cellular level, human uterine cervix cell lines HeLaS3 cells were used. The HeLaS3 cell was obtained from American Type Culture Collection (ATTC), and cultured in a CO2-incubator of saturated steam, in the presence of 5% CO2, by using Dulbecco's Modified Eagle's Medium containing 10% fetal calf serum at 37° C.
It has been reported that PLK 1 plays an important role in various stages of mitotic phase (M-phase) in mammalian cells (Nature Review Molecular Cell Biology (Nat. Rev. Mol. Cell. Biol.), Vol. 5, 429, (2004)). In fact, when the mammalian cells are treated with PLK 1 siRNA to control the expression level, the cell cycle progression is inhibited and thus the cell is arrested at M phase. In addition, when examining the phosphorylation level of serine (10th residue on histone H3) which is thought to be required for a chromosome condensation in M phase, is examined, it is observed that the level is enhanced to a high level. Thus, after treating the cell with the compound according to the invention, the phosphorylation level of histone H3 was examined by the indirect fluorescent antibody technique, the cells arrested at M phase were identified by using the level thereof as an indicator to analyze the ratio of cells arrested at M phase, and then EC50 value of each compound was calculated to evaluate the PLK 1 inhibitory activity at a cellular level.
First, HeLaS3 cells synchronized at the G1/S phase by the double-thymidine method were seeded into a lysine-treated 96-well plate (Falcon Corp.) in the ratio of 8,000 per one well, and allowed to stand still in the above-mentioned CO2 incubator. 4 hours after the seeding, the compound according to the invention, which is diluted in series, was added into each well of the plate, and further allowed to stand still in the CO2 incubator. 12 hours after the addition of the compound according to the invention, the culture medium containing the compound according to the invention in each well of the plate was removed, and then 100 μL of ice-cold 100% methanol (Wako Pure Chemical Industries, Ltd.) was added, to carry out cell fixation for 10 minutes and treatment for increasing the membrane permeability. Subsequently, to the wells in which the methanol was removed, 50 μL of 1% BSA/PBS was added, and then blocking was carried out for 30 minutes. Thereafter, for the primary antibody reaction, 50 μL of 1% BSA/PBS containing a 2.5 mg/mL Anti-phospho Histone H3 (Ser10) antibody (Upstate Corp.) was added, and the plate was left over at room temperature for 90 minutes. After terminating the reaction, each well was once washed with PBS, and for the second antibody reaction, 50 μL of 1% BSA/PBS containing 1.5 mg/mL Cy5-labelled anti-rabbit IgG (H+ L) antibody (Chemicon) and 10 ug/mL DAPI (Sigma) which is a nucleus staining regent, was added to the wells, and further left over at room temperature for 90 minutes. After terminating the reaction, the reaction solution in wells was removed and replaced with 100 μL of PBS, and then fluorescence images were captured by using IN Cell Analyzer 1000 (manufactured by GE Amersham) to analyze the ratio of the cells arrested at M phase (Mitotic index) in each view.

Compound | IC50 [1] | IC50 [2] | EC50 [3]
CC(Oc1nc(-c2cnc3ccccn23)sc1C(N)=O)c1ccccc1Cl (centres unmarked) [Example 161] | – | – | 490 nM
CC(Oc1cc(-c2cnc3cnccn23)sc1C(N)=O)c1ccccc1Cl (centres unmarked) [Example 163] | – | – | 660 nM
C[C@@H](Oc1nc(-c2cnc3cnc(CS(C)(=O)=O)cn23)sc1C(N)=O)c1ccc(CN(C)C)cc1Cl [Example 236] | – | – | 100 nM

Further lines, results first:

IC50 [1] | IC50 [2] | EC50 [3] | Compound
12 nM | 12 nM | 70 nM | CC(Oc1cc(-c2cnc3ccccn23)sc1C(N)=O)c1ccccc1[N+](=O)[O-] (centres unmarked) [Example 44, 5-imidazo[1,2-a]pyridin-3-yl-3-[1-(2-nitrophenyl)ethoxy]thiophene-2-carboxyamide]
– | – | 360 nM | C[C@@H](Oc1cc(-c2cnc3ccc(OCCO)cn23)sc1C(N)=O)c1ccccc1Cl [Example 66, 3-[(1R)-1-(2-chlorophenyl)ethoxy]-5-[6-(2-hydroxyethoxy)imidazo[1,2-a]pyridin-3-yl]thiophene-2-carboxyamide]
28 nM | 22 nM | 210 nM | C[C@@H](Oc1cc(-c2cnc3ccc(CN4CCNCC4)cn23)sc1C(N)=O)c1ccccc1Cl [Example 119, 3-[(1R)-1-(2-chlorophenyl)ethoxy]-5-[6-(piperazin-1-ylmethyl)imidazo[1,2-a]pyridin-3-yl]thiophene-2-carboxyamide]
– | – | 390 nM | C[C@@H](Oc1cc(-c2cnc3ccc(C#N)cn23)sc1C(N)=O)c1ccc(CNC(C)(C)CO)cc1OC(F)F [Example 188, 5-(6-cyanoimidazo[1,2-a]pyridin-3-yl)-3-[(1R)-1-(2-(difluoromethoxy)-4-{[(2-hydroxy-1,1-dimethylethyl)amino]methyl}phenyl)ethoxy]thiophene-2-carboxyamide]
